Values quoted from earlier work in patent US20130137759A1, “COMPOSITIONS AND METHODS FOR TREATING PARASITIC DISEASE” (Worcester Polytechnic Institute, priority 2010, published 2013).

Columns and labels:
[1] = rats, intragastric in 1:9 dimethyl-acetamide-oil, 10 mg kg^−1 (2,320 μg per rat)

## C[C@@H]1CC[C@H]2[C@@H](C)C(=O)O[C@@H]3O[C@@]4(C)CC[C@@H]1[C@]32OO4 [artemisinin]
Healthy male volunteers
  half-life: 1 to 3 h
humans, pure AN (Rath et al. 2004)
  tmax: 2.3 h

## COc1cc2oc(-c3ccc(O)c(O)c3)c(OC)c(=O)c2c(O)c1OC [chrysosplenol-D]
P. falciparum; combined with pure AN
  effect on AN activity against P. falciparum: significant enhancement of AN activity
P. falciparum; flavonoid alone
  direct effect on P. falciparum: no direct effect

## C[C@H]1[C@@H](O)O[C@@H]2O[C@@]3(C)CC[C@H]4[C@H](C)CC[C@@H]1[C@@]24OO3 [dihydroartemisinin]
[1]
  Plasma/serum concentration Artemisinin Cmax: 800 ng/mL
